According to article PMC7737769, “Pharmacological inhibition of syntenin PDZ2 domain impairs breast cancer cell activities and exosome loading with syndecan and EpCAM cargo” (Journal of Extracellular Vesicles, 2020):

Experiments:
Format in all cases: cell-based
MCF‐7 cells [1] = assay: Wound-healing (migration) assay, MCF-7; conditions: MCF-7, 100 µM, 24 h
Experimental: For migration assays, cells were treated with 1 ng/ml of mitomycin (Sigma M4287) overnight to inhibit cell division. Treated cells were plated in Ibidi culture‐inserts (Ibidi Cat‐80206) for 12 h to reach 90%–95% of confluence with or without compounds (100 µM). A wound was created by removing inserts from the dishes. Medium with or without compounds (100 µM) was refreshed to remove dead cells and the cells were observed under an inverted light microscope (Leica SP2) equipped with a camera. Images were taken by MetaMorph software every 10 min for 24 h. Measurements of cell velocity were calculated using the MetaMorph software.

MCF‐7 cells [2] = assay: Soft agar colony formation assay; conditions: wild-type MCF-7, 100 µM
Experimental: Agarose was melted in water and mixed with DMEM‐F12 medium pre‐incubated at 37°C to reach a 0.6% or a 0.36 % final concentration. A lower layer of 0.6% agarose was deposited in each well of a 96‐well plate except that the first and last rows and columns of the plate were filled with PBS to avoid drying. Agarose was allowed to cool for 15 min before the upper layer containing different concentrations of cells, a final concentration of 0.36% agarose and compounds (100 µM) was added. Compounds were added only once at the beginning of experiment. Each condition was tested in triplicate. Colonies were kept at 37°C in a 5% CO2 incubator and daily observed under microscope. At the end of the experiment, cells were tested for their ATP content, an indicator of their metabolic activity, using the Promega kit G7570. In this assay, ATP is used as a co‐factor for a luciferase reaction. Signals were analysed by measuring luminescence with a LUMIstar luminometer (BMG Labtech).

MCF‐7 SyntKO cells = assay: Mammosphere formation assay, MCF-7 SyntKO; conditions: 100 µM
Experimental: MCF‐7 and MCF‐7 SyntKO cells were treated with increasing concentrations of compounds C58, SyntOFF (50‐100µM) or DMSO 0.2% as control. After 24 h, cells were trypsinized, re‐suspended in normal growth media and washed three times in PBS to remove serum. Cell concentration was determined using the LUNA-FL Automated Fluorescence Cell Counter (Logos Biosystem) and cells were then seeded at 1000 cells/ml in 6‐well Ultra low Adherence plates (Corning Inc., Corning, NY) in MEBM medium (Lonza) supplemented with 5 µg/ml insulin (Sigma‐Aldrich), 20 ng/ml recombinant epidermal growth factor (Sigma‐Aldrich), 1X of B27 supplement (Invitrogen, Carlsbad, CA, USA), 0.5 µg/ml hydrocortisone (Sigma‐Aldrich), 1X of β‐mercaptoethanol and 1% penicillin/streptomycin (Gibco). Fresh medium was added into the plates every 3–4 days. The number of spheres (diameter > 50 µm) was evaluated under microscope on days 7–10. Sphere formation was calculated as the number of spheres divided by the original number of cells seeded and normalized to control.

Compound | cell migration (wound closure) (MCF‐7 cells [1]) | colony formation in soft agar (MCF‐7 cells [2]) | mammosphere formation (MCF‐7 SyntKO cells)
CC(C)[C@H](NC(=O)CSc1ccc(Cl)cc1)C(=O)O [Compound C58] | decreases | decreases | –
CC(C)[C@H](NC(=O)CCSc1ccc(Cl)cc1)C(=O)O [SyntOFF, (S)‐2‐(3‐(4‐chlorophenylthio)propanamido)‐3‐methylbutanoic acid] | – | – | no effect
